# According to publication PMC11694061 (Cancer Research, 2024):
# Key:
# MIA PaCa-2 cells = test: Proliferation, MIA PaCa-2 (2D); format: cell-based; conditions: Homo sapiens, MIA PaCa-2, 72 hours
# Method: (§1) Cells were inoculated onto 96-well plates and treated with compounds in serial dilutions for 3 or 5 days. […] The cell viability of primary patient samples was tested using the CellTiter-Glo Luminescent Assay kit (G7573, Promega) according to the manufacturer’s instructions. […] The optical density (OD) values were obtained using a SPARK microplate reader (Tecan). IC50 was calculated using GraphPad Prism 8.0.2 (nonlinear regression analysis with four parameters). Drug synergy was evaluated with combination index (CI) values using CalcuSyn Demo Version 2.0 software. CI > 1 indicates antagonism, CI < 1 indicates synergy, and CI = 1 indicates additivity.
# MIA PaCa-2/R cells = test: Proliferation, MIA PaCa-2/R (2D); format: cell-based; conditions: Homo sapiens, MIA PaCa-2/R (AMG510-resistant), 72 hours
# Method: as §1
# K562 xenografts = test: K562 xenograft; format: in vivo; conditions: imatinib (100 mg/kg) monotherapy, orally daily
# Method: (§2) Animal experiments were carried out following the guidelines of the Institutional Animal Care and Use Committee of Shanghai Institute of Materia Medica, Chinese Academy of Sciences, and Lingang Laboratory. […] All mice were raised till the tumor volumes reached approximately 100 mm^3 and were randomly assigned to either the vehicle or treated groups (n = 5/group). […] Body weights and tumor sizes of mice were recorded every 3 days. Tumor volumes were calculated as follows: ½ × length × width^2. On the final day of the experiment, the mice were euthanized and tumor samples were prepared for Western blot analysis.
# 293T cells (KRAS-WT) = test: 3D growth inhibition, 293T; format: cell-based; conditions: Homo sapiens, HEK-293T, 120 h, read-out: IC50 (3D culture), 293T
# Method: (§3) Cells were inoculated onto 96-well plates and treated with compounds in serial dilutions for 3 or 5 days. Cell viability was assessed using sulforhodamine B (230162, Sigma-Aldrich) assay and methyl thiazolyl tetrazolium (M5655, Sigma-Aldrich) assay for adherent and suspended cells, respectively, in accordance with previously described methods ([48]). The cell viability of primary patient samples was tested using the CellTiter-Glo Luminescent Assay kit (G7573, Promega) according to the manufacturer’s instructions. Three-dimensional cultivation was conducted in 96-well ultralow attachment plates (7007, Corning). The optical density (OD) values were obtained using a SPARK microplate reader (Tecan). IC50 was calculated using GraphPad Prism 8.0.2 (nonlinear regression analysis with four parameters). Drug synergy was evaluated with combination index (CI) values using CalcuSyn Demo Version 2.0 software. CI > 1 indicates antagonism, CI < 1 indicates synergy, and CI = 1 indicates additivity.
# BxPC-3 cells (KRAS-WT) = test: 3D growth inhibition, BxPC-3; format: cell-based; conditions: Homo sapiens, BXPC-3, 120 h, read-out: IC50 (3D culture), BxPC-3
# Method: as §3
# [1] = system: NCI-H358 cells (KRAS^G12C); test: 3D growth inhibition, NCI-H358; format: cell-based; conditions: Homo sapiens, NCI-H358, 120 h, read-out: IC50 (3D culture), NCI-H358
# Method: as §3
# GP2d cells (KRAS^G12D) = test: 3D growth inhibition, GP2d; format: cell-based; conditions: Homo sapiens, 120 h, read-out: IC50 (3D culture), GP2d
# Method: as §3
# [2] = system: HPAF-II cells (KRAS^G12D); test: 3D growth inhibition, HPAF-II; format: cell-based; conditions: Homo sapiens, 120 h, read-out: IC50 (3D culture), HPAF-II
# Method: as §3
# SW620 cells (G12V) = test: 3D growth inhibition, SW620; format: cell-based; conditions: Homo sapiens, SW-620, 120 h, read-out: IC50 (3D culture), SW620
# Method: as §3
# K562 cells = test: Proliferation, K562; format: cell-based, human; conditions: Homo sapiens, K562, read-out: IC50 (cell proliferation inhibition in K562 cells)
# Method: as §1
# [3] = system: MIA PaCa-2 xenografts (KRAS^G12C); test: MIA PaCa-2 xenograft; format: in vivo, mouse; conditions: BI-3406 50 mg/kg twice daily, end of 24-day period
# Method: as §2
smiles,measurement,setting,value
"C=CC(=O)N1CCN(c2nc(=O)n(-c3c(C)ccnc3C(C)C)c3nc(-c4c(O)cccc4F)c(F)cc23)[C@@H](C)C1 [AMG510, sotorasib]",IC50,MIA PaCa-2 cells,25 nM
same,IC50,MIA PaCa-2/R cells,590000 nM
Cc1ccc(NC(=O)c2ccc(CN3CCN(C)CC3)cc2)cc1Nc1nccc(-c2cccnc2)n1 [imatinib],TGI,K562 xenografts,50.9%
COc1cc2nc(C)nc(N[C@H](C)c3cc(N)cc(C(F)(F)F)c3)c2cc1O[C@H]1CCOC1 [BI-3406],IC50,293T cells (KRAS-WT),> 10000 nM
same,IC50,BxPC-3 cells (KRAS-WT),692 nM
same,IC50,[1],11 nM
same,IC50,GP2d cells (KRAS^G12D),4.1 nM
same,IC50,[2],61.9 nM
same,IC50,SW620 cells (G12V),18 nM
same,IC50,K562 cells,199 ± 32 nM
same,tumor growth inhibition,[3],62.0%
